Measurements as given in patent publication US20250176599A1, “FLAVOR COMPOSITION AND FOOD AND BEVERAGE” (TAKASAGO INTERNATIONAL CORPORATION, priority 2021, published 2025).

Legend:
[1] = Sensory evaluation of aqueous solution IV containing 1,5-octadien-3-one 100 ppt: off-flavor intensity and masking component intensity; settings: aqueous solution IV, average panel score
Summary of the method: (§1)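 8 trained panelists; degradant in ion-exchanged water + nootkatone. Off-flavor 0–4, relative (no masker = 4, water = 0); masker flavor 0–4, absolute.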

[2] = Overall conclusion of the sensory evaluation across soymilks I and II
Protocol: (§2) To commercially available soymilk (“Delicious Unadjusted Soymilk” manufactured by Kikkoman Corporation), each degradation component was added to prepare degradation component-added soymilks at the concentrations listed in Table 23. To these degradation component-added soymilks, 1,4-dioxacycloheptadecan-5,17-dione was added at the concentrations listed in Table 23 to confirm the intensity of the off-flavor (masking effect) and the intensity of the masking components (impact on the flavor of the soymilk itself) for each sample.
Eight experienced panelists were selected to conduct a sensory evaluation similar to that of Example 1.
The same method as in Example 20 was used to confirm the intensity of the off-flavor (masking effect) derived from unsaturated fatty acids by α-methyl ionone and the intensity of the masking components (impact on the flavor of the soymilk itself).
The same method as in Example 20 was used to confirm the intensity of the off-flavor (masking effect) derived from unsaturated fatty acids by menthyl 3-hydroxybutyrate and the intensity of the masking components (impact on the flavor of the soymilk itself).

[3] = Sensory evaluation of aqueous solution V containing 1-octen-3-ol 10 ppb: off-flavor intensity and masking component intensity; settings: average panel score
Summary of the method: as §1

[4] = Sensory evaluation of degradation component-added soymilk II (1-octen-3-ol 500 ppb); settings: average panel score
Protocol: as §2
(§3) Eight experienced panelists were selected to conduct a sensory evaluation similar to that of Example 1. […]

[5] = Sensory evaluation of aqueous solution I containing (E)-2-nonenal 1 ppb: off-flavor intensity and masking component intensity; settings: average panel score
Summary of the method: as §1

[6] = Overall conclusion of the sensory evaluation across aqueous solutions I to VI
Summary of the method: as §1

[7] = Sensory evaluation of degradation component-added soymilk I ((E)-2-nonenal 5 ppb); settings: average panel score
Protocol: as §2, §3

[8] = Sensory evaluation of aqueous solution VI containing 1,5-octadien-3-ol 10 ppb: off-flavor intensity and masking component intensity; settings: aqueous solution VI, average panel score
Summary of the method: as §1

[9] = Sensory evaluation of aqueous solution III containing 1-octen-3-one 1 ppb: off-flavor intensity and masking component intensity; settings: average panel score
Summary of the method: as §1

[10] = Sensory evaluation of aqueous solution II containing (E)-2-octenal 10 ppb: off-flavor intensity and masking component intensity; settings: average panel score
Summary of the method: as §1

CC(O)CC(=O)OC1CC(C)CCC1C(C)C (stereo not drawn) [menthyl 3-hydroxybutyrate]
≥ 100 ppb: concentration that masks the off-flavor and does not affect the flavor of the soymilk itself, lower limit [2]
3.4: Off-Flavor Intensity ([1]; 10 ppb added) | Off-Flavor Intensity ([5]; 100 ppt added) | Off-Flavor Intensity ([9]; 1 ppb added) | Off-Flavor Intensity ([10]; 10 ppt added) | Off-Flavor Intensity ([10]; 100 ppt added)
1.4: Off-Flavor Intensity ([4]; 50 ppm added) | Off-Flavor Intensity ([5]; 50 ppm added) | Masking Component Intensity ([8]; 1 ppm added) | Masking Component Intensity ([10]; 100 ppb added)
1.0: Masking Component Intensity ([3]; 1 ppm added) | Masking Component Intensity ([3]; 100 ppb added) | Masking Component Intensity ([9]; 10 ppb added)
≥ 10 ppt: concentration that masks the off-flavor and does not affect the flavor of the food and/or beverage itself, lower limit [6]
0.5: Masking Component Intensity ([4]; 1 ppm added)
1.9: Off-Flavor Intensity ([4]; 10 ppm added) | Masking Component Intensity ([4]; 50 ppm added) | Masking Component Intensity ([5]; 1 ppm added) | Off-Flavor Intensity ([5]; 10 ppm added) | Off-Flavor Intensity ([7]; 10 ppm added) | Masking Component Intensity ([10]; 1 ppm added) | Off-Flavor Intensity ([10]; 10 ppm added)
0.9: Masking Component Intensity ([5]; 10 ppb added) | Masking Component Intensity ([8]; 100 ppb added) | Masking Component Intensity ([10]; 10 ppb added)
1.3: Masking Component Intensity ([4]; 10 ppm added) | Off-Flavor Intensity ([7]; 100 ppm added) | Off-Flavor Intensity ([8]; 50 ppm added)
1.6: Masking Component Intensity ([3]; 5 ppm added) | Off-Flavor Intensity ([8]; 10 ppm added)
2.0: Off-Flavor Intensity ([1]; 50 ppm added) | Off-Flavor Intensity ([3]; 10 ppm added) | Off-Flavor Intensity ([9]; 10 ppm added) | Off-Flavor Intensity ([10]; 1 ppm added)
0.8: Masking Component Intensity ([1]; 100 ppb added) | Masking Component Intensity ([3]; 10 ppb added) | Off-Flavor Intensity ([4]; 100 ppm added)
≤ 100 ppm: concentration that masks the off-flavor and does not affect the flavor of the soymilk itself, upper limit [2]
2.6: Masking Component Intensity ([1]; 10 ppm added) | Masking Component Intensity ([9]; 10 ppm added)
2.3: Masking Component Intensity ([7]; 50 ppm added) | Off-Flavor Intensity ([10]; 100 ppb added)
2.4: Off-Flavor Intensity ([3]; 5 ppm added) | Masking Component Intensity ([3]; 10 ppm added) | Off-Flavor Intensity ([7]; 1 ppm added) | Off-Flavor Intensity ([9]; 1 ppm added)
2.5: Off-Flavor Intensity ([1]; 5 ppm added) | Off-Flavor Intensity ([1]; 10 ppm added) | Off-Flavor Intensity ([3]; 1 ppm added) | Off-Flavor Intensity ([4]; 1 ppm added) | Off-Flavor Intensity ([5]; 1 ppm added) | Masking Component Intensity ([5]; 10 ppm added) | Masking Component Intensity ([8]; 10 ppm added) | Off-Flavor Intensity ([8]; 100 ppb added)
2.1: Off-Flavor Intensity ([8]; 1 ppm added) | Masking Component Intensity ([10]; 10 ppm added)
0.6: Masking Component Intensity ([1]; 10 ppb added) | Masking Component Intensity ([5]; 1 ppb added) | Masking Component Intensity ([8]; 10 ppb added) | Masking Component Intensity ([9]; 1 ppb added) | Masking Component Intensity ([10]; 1 ppb added)
2.9: Off-Flavor Intensity ([3]; 10 ppb added) | Off-Flavor Intensity ([4]; 100 ppb added) | Masking Component Intensity ([4]; 100 ppm added) | Off-Flavor Intensity ([5]; 100 ppb added) | Off-Flavor Intensity ([8]; 1 ppb added) | Off-Flavor Intensity ([8]; 10 ppb added) | Off-Flavor Intensity ([9]; 10 ppb added) | Off-Flavor Intensity ([9]; 100 ppb added)
0.4: Masking Component Intensity ([3]; 1 ppb added) | Masking Component Intensity ([4]; 100 ppb added) | Masking Component Intensity ([7]; 1 ppm added) | Masking Component Intensity ([10]; 10 ppt added) | Masking Component Intensity ([10]; 100 ppt added)
≤ 10 ppm: concentration that masks the off-flavor and does not affect the flavor of the food and/or beverage itself, upper limit [6]
1.8: Masking Component Intensity ([1]; 5 ppm added) | Masking Component Intensity ([8]; 5 ppm added) | Off-Flavor Intensity ([8]; 5 ppm added) | Masking Component Intensity ([9]; 1 ppm added) | Off-Flavor Intensity ([9]; 50 ppm added)
2.8: Off-Flavor Intensity ([3]; 100 ppb added) | Off-Flavor Intensity ([7]; 100 ppb added) | Off-Flavor Intensity ([10]; 10 ppb added)
3.1: Masking Component Intensity ([1]; 50 ppm added) | Off-Flavor Intensity ([1]; 100 ppb added) | Off-Flavor Intensity ([5]; 1 ppb added) | Masking Component Intensity ([7]; 100 ppm added)
1.5: Off-Flavor Intensity ([3]; 50 ppm added) | Masking Component Intensity ([5]; 100 ppb added) | Off-Flavor Intensity ([7]; 50 ppm added) | Masking Component Intensity ([9]; 100 ppb added)
3.0: Off-Flavor Intensity ([1]; 1 ppm added) | Off-Flavor Intensity ([5]; 10 ppb added) | Off-Flavor Intensity ([8]; 100 ppt added) | Off-Flavor Intensity ([10]; 1 ppb added)
3.5: Masking Component Intensity ([3]; 50 ppm added) | Off-Flavor Intensity ([3]; 100 ppt added) | Masking Component Intensity ([5]; 50 ppm added) | Masking Component Intensity ([9]; 50 ppm added) | Masking Component Intensity ([10]; 50 ppm added)
1.1: Masking Component Intensity ([1]; 1 ppm added) | Masking Component Intensity ([7]; 10 ppm added) | Off-Flavor Intensity ([10]; 50 ppm added)
3.8: Off-Flavor Intensity ([1]; 1 ppb added) | Off-Flavor Intensity ([1]; 100 ppt added)
3.6: Off-Flavor Intensity ([5]; 10 ppt added) | Masking Component Intensity ([8]; 50 ppm added) | Off-Flavor Intensity ([9]; 10 ppt added) | Off-Flavor Intensity ([9]; 100 ppt added)
0.1: Masking Component Intensity ([1]; 1 ppb added) | Masking Component Intensity ([1]; 100 ppt added) | Masking Component Intensity ([5]; 10 ppt added) | Masking Component Intensity ([7]; 100 ppb added) | Masking Component Intensity ([8]; 100 ppt added)
3.3: Off-Flavor Intensity ([3]; 1 ppb added)
0.3: Masking Component Intensity ([3]; 100 ppt added) | Masking Component Intensity ([5]; 100 ppt added) | Masking Component Intensity ([8]; 1 ppb added) | Masking Component Intensity ([9]; 10 ppt added) | Masking Component Intensity ([9]; 100 ppt added)
